According to patent publication US20040186098A1 (Amgen Inc., priority 1997, published 2004):

Key:
FKBP12 = FKBP12 (Homo sapiens, UniProt P62942); test: Ki test procedure: inhibition of peptidyl-prolyl isomerase (rotamase) activity of FKBP12, chymotrypsin-coupled assay; format: biochemical; conditions: apparent Ki
Excerpt: The inhibition of the prolyl peptidyl cis-trans isomerase activity of FKBP may be measured as an indicator of this affinity.
The binding to FBKP12 and inhibition of the peptidyl-prolyl isomerase (rotamase) activity of the compounds used in the inventive methods and pharmaceutical compositions can be evaluated by known methods described in the literature (Harding et al., Nature, 1989, 341:758-760; Holt et al. J. Am. Chem. Soc., 115:9923-9938).
The cis-trans isomerization of an alanine-proline bond in a model substrate, N-succinyl-Ala-Ala-Pro-Phe-p-nitroanilide, is monitored spectrophotometrically in a chymotrypsin-coupled assay, which releases para-nitroanilide from the trans form of the substrate. The inhibition of this reaction caused by the addition of different concentrations of inhibitor is determined, and the data is analyzed as a change in first-order rate constant as a function of inhibitor concentration to yield the apparent Ki values.
In a plastic cuvette are added […] of ice cold assay buffer (25 mM HEPES, pH 7.8, 100 mM NaCl), 10 mL of FKBP (2.5 mM in 10 mM Tris-Cl pH 7.5, 100 mM NaCl, 1 mM dithiothreitol), […] of chymotrypsin (50 mg/ml in 1 mM HCl) and […] of test compound at various concentrations in dimethyl sulfoxide. The reaction is initiated by the addition of 5 mL of substrate (succinyl-Ala-Phe-Pro-Phe-para-nitroanilide, 5 mg/mL in 2.35 mM LiCl in trifluoroethanol).
The absorbance at 390 nm versus time is monitored for 90 seconds using a spectrophotometer and the rate constants are determined from the absorbance versus time data files.

outer hair cells (OHC) = test: Intramiddle ear neomycin-induced ototoxicity, compound given into the middle ear, outer hair cell loss; format: in vivo, guinea pig; conditions: 10 ng in the middle ear
Protocol: Twenty guinea pigs used in this study were divided into two groups: 10 animals received 10 ng and 10 received 1 ng of the sensorineurotrophic compound.
Sensorineurotrophic compound stock A: A stock solution of sensorineurotrophic compound at 1 mg/10 ml in 100% ethanol was prepared and then diluted and mixed in Intralipid at 10 ng/100 μl.
Sensorineurotrophic compound stock B: A stock solution of sensorineurotrophic compound at 1 mg/100 ml in 100% ethanol was prepared and then diluted and mixed in 20% Intralipid at 1 ng/100 μl.
Animals were anesthetized with an intramuscular injection of a mixture of ketamine (80 mg/kg) and xylazine (4 mg/kg). Through a post-auricular incision, the right bulla was identified. A hole was drilled to open the middle ear cavity (care was taken not to injure the tympanic annulus or ossicles). A piece of gelfoam (˜2 mm^3) soaked with the sensorineurotrophic compound solution was inserted into the round window niche. The remaining sensorineurotrophic compound solution (˜100 μl) then was injected into the middle ear cavity. In the 10 ng dose group, 100 μl of sensorineurotrophic compound stock A was administered; and in the 1 ng dose group, 100 μl of sensorineurotrophic compound stock B was administered to the middle ear cavity. The hole was covered with a piece of clear plastic sheet which was stuck on the skull with a superglue. The incision was closed with clips. The same procedure was performed at the left bulla, but 100 μl of vehicle solution instead of sensorineurotrophic compound solution was administered. The animals were maintained in the prone position until they woke up to ensure filling of the middle ear cavity.
After two days, the animals received a second middle ear administration of sensorineurotrophic compound or vehicle together with neomycin. Solutions were prepared for the two groups of animals as follows:
Solution A: Neomycin was dissolved in sensorineurotrophic compound stock A described above. The final concentration of neomycin was 5 mg and the sensorineurotrophic compound concentration was 10 ng in a 100 μl vehicle solution.
Solution B: Neomycin was dissolved in sensorineurotrophic compound stock B described above. The final concentration of neomycin was 5 mg and the concentration of sensorineurotrophic compound was 1 ng in a 100 μl vehicle solution.
Solution C: Neomycin was dissolved in 20% Intralipid to a final concentration of 5 mg in 100 μl vehicle.
The plastic cover sheet on the bulla window was removed and the middle ear cavity was exposed. The old sensorineurotrophic compound or vehicle was sucked off and the old gelfoam was removed from the round window niche. A piece of gelfoam with fresh stock solution containing sensorineurotrophic compound and neomycin was administered to the round window niche, and the remaining solution (˜100 μl, solution A for the 10 ng dose group and solution B for the 1 ng dose group, respectively) was injected into the middle ear cavity of the right bulla.
Solution C (100 μl) was administered to the left ear for both groups in the same way.
Fourteen days after the second surgery, animals were perfused transcardially with a PBS flush followed by a fixative of 4% paraformaldehyde in 0.1M PBS. Immediately following the perfusion, the temporal bone was removed from the head. The bulla was opened and the cochlea was exposed. The apex was opened and the membrane of the round and oval windows was punched. The fixative solution was gently infused into the perilymphatic space through the apex hole and then allowed to flow out from windows. Then the cochleae were post-fixed in the same fixative solution for at least one day.
To identify and count hair cells in the organ of Corti, a direct immunostaining method was used to label the actin present naturally in the stereocilia bundles of the hair cells. The cochlea was dissected and the perilymphatic space was fully exposed. […]

Preyer's reflex = test: Cisplatin-induced ototoxicity, compound given systemically, Preyer's reflex monitoring; format: in vivo, guinea pig; conditions: 30 mg/kg s.c. daily, cisplatin 4 mg/kg i.p. x4; 10 days after the 4th injection; vehicle group more than 80%
Protocol: Twenty male pigmented guinea pigs were divided into two groups (10 in each). One group was treated with Compound XXV while the other with vehicle—2 days prior to the first cisplatin injection. The test compound or vehicle was delivered by daily sub-cutaneous injection. On the day of injection, 100 mg of Compound XXV was dissolved in 1 ml of ethanol, then added to 20% Intralipid solution to a final volume of 3 ml and final Compound XXV concentration of 10 mg/0.3 ml. Each animal was subcutaneously injected with 30 mg/kg of Compound XXV solution Two days after the beginning of test compound injections (d2), cisplatin intraperitoneal injection was given to all animals at 4 mg/kg. After 3 days, a second cisplatin injection was given to all animals (d5). After another 3 days, a third injection (d8) and after 3 more days the fourth and last injection of cisplatin was given (d11). Test compound injections continued daily until day 21 (10 days after the last cisplatin injection).
Preyers' reflex is a rough indication of hearing function in rodents. […] The animals in this experiment were monitored daily for their Preyer's reflex. […]
Determination of hair cell numbers was determined in the same manner as in Example 4.

[1] = rotamase inhibition, Table XLI, Formulas I to XIV

Sequence of FKBP12 (P62942 whole entry, species assumed): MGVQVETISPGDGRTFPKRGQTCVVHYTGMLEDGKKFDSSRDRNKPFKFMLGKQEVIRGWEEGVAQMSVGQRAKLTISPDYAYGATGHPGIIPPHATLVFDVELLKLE

SMILES	Ki (FKBP12; FKBP12 rotamase inhibition) [nM]	Ki (FKBP12; [1]) [nM]	other results
O=C(C(=O)N1CCCCC1C(=O)SCCc1ccccc1)c1ccccc1 (stereo not shown) [Compound 14]		313	
O=C(C(=O)N1CCC[C@H]1C(=O)SCCc1ccccc1)C1CCCC1 [Compound 28, 2-Phenyl-1-ethyl (2S)-1-(1-cyclopentyl-1,2-dioxoethyl)-2-pyrrolidinecarbothioate]		108	
CCC(C)(C)C(=O)C(=O)N1CSC[C@@H]1C(=O)OCCCc1ccccc1 [Compound 80, 3-phenyl-1-propyl(2S)-1-(3,3-dimethyl-1,2-dioxopentyl)-2-(4-thiazolidine)carboxylate]		215	
CCC(C)(C)C(=O)C(=O)N1CCC[C@H]1C(=O)SCCC(c1ccccc1)c1ccccc1 [Compound XVI]			difference in the number of OHCs lost, vehicle vs compound (FIG. 8) (outer hair cells (OHC); 5 mg neomycin, group mean): over 50%; loss of hair cells in the second turn (turn 3), in words (outer hair cells (OHC); neomycin (FIG. 9)): completely prevent the loss; loss of hair cells in the basal turn (turn 4) (outer hair cells (OHC); neomycin, vehicle almost 100% (FIG. 9)): around 30%
CCC(C)(C)C(=O)C(=O)N1CCCCC1C(=O)SCCC(c1ccccc1)c1ccccc1 (stereo not shown) [Compound XXV]			animals that lost Preyer's reflex (Preyer's reflex): about 20 % of the animals

Second part, led by results:

Ki (FKBP12; FKBP12 rotamase inhibition) [nM]	SMILES	Ki (FKBP12; [1]) [nM]	other results
51 to 200	CCC(C)(C)NC(=O)N1CCCC1C(=O)SCCCc1ccc(OC)cc1 (stereo not shown) [Compound 103]		
1 to 50	O=C(SCCCc1cccnc1)C1CCCN1C(=S)NC12CC3CC(CC(C3)C1)C2 (stereo not shown) [Compound 108]		
1 to 50	O=C(SC(CCc1ccccc1)CCc1ccccc1)C1CCCCN1C(=O)Nc1ccccc1 (stereo not shown) [Compound 113]		
